Ends that are not written are not given here.
Experiments:
[1] = amylin agonist activity in vivo: ability to induce hyperlactemia and/or hyperglycemia in mammals; details: treated test animals
Excerpt: Analogues of amylin can be assayed for activity in the soleus muscle assay described above. Amylin agonist activity of compounds may also be assessed by the ability to induce hyperlactemia and/or hyperglycemia in mammals. […] These preferred compounds include ^25 Pro^26 Val^28,29 Pro-h-amylin, ^25,28,29 Pro-h-amylin, and ^18 Arg^25,28 Pro-h-amylin.

[2] = solubility and stability characteristics compared to human amylin; format: physicochemical
[3] = administration of amylin to anesthetized rats: blood lactate and blood glucose; format: in vivo
Excerpt: The term "amylin" is used in this application to include compounds defined by Young et al., U.S. application Ser. No. 07/640,478, filed Jan. 10, 1991, now U.S. Pat. No. 5,234,906, entitled "Hyperglycemic Compositions", which (including drawings) is hereby incorporated by reference. For example, it includes the peptide hormone, and species variations of it, referred to as amylin which is synthesized and secreted from the beta cells of the pancreas. Thus, it includes human amylin, cat amylin, dog amylin; rat amylin, mouse amylin, hamster amylin, and guinea pig amylin. Preferably the amylin has an EC50 of less than 1 nM in the rat soleus muscle assay as described in, for example, European Patent Application 88307927.9. Amylin functions along with insulin, which is stored and released from the same pancreatic beta cells, to regulate fuel metabolism. Amylin acts through receptors located in skeletal muscle to increase glycogen turnover in this tissue, believed to result in an increased return to the bloodstream of lactate, which is a major precursor of hepatic gluconeogenesis. Amylin cosecretion with insulin after meals therefore results in restoration of hepatic glycogen content and limits the potential which would otherwise exist for insulin to induce hypoglycemia. […]

[4] = system: liver glucose output; details: rats; cited from earlier work
[5] = toxicological studies with amylin, two weeks of administration (rats); format: in vivo
Excerpt: (§1) While this proposal is counter to reports that amylin can suppress appetite (which is clearly an undesirable feature for treatment of anorexia or cachectic states), applicant believes that the appetite suppressant effects of amylin is seen only at very high doses and may be short lived. Indeed, applicant has discovered that in toxicological studies with amylin in both rats and dogs, where two weeks of amylin administration were used, there was no reduction in food intake or weight in the animal.

[6] = toxicological studies with amylin, two weeks of administration (dogs); format: in vivo
Excerpt: as §1

solubility characteristics [2] | stability characteristics [2] | Substance | amylin activity in vivo (hyperlactemia, hyperglycemia) [1] | further results
more desireable | more desireable | ^18 Arg^25,28 Pro-h-amylin | marked hyperlactemia followed by hyperglycemia | 
more desireable | more desireable | ^25 Pro^26 Val^28,29 Pro-h-amylin |  | 
 |  | ^28 Pro-h-amylin (KCNTATCATQRLANFLVHSSNNFGAILPSTNVGSNTY; ends and bridges not checked; cysteine pairing not given here; UniProt P10997 34-70, looked up, variant S28P) [agonist analogue of human amylin] | marked hyperlactemia followed by hyperglycemia | 
 |  | amylin (KCNTATCATQRLANFLVHSSNNFGAILSSTNVGSNTY; Islet amyloid polypeptide; UniProt P10997 34-70, looked up) [peptide hormone, and species variations of it, synthesized and secreted from the beta cells of the pancreas] |  | blood lactate levels [3]: large increases in blood lactate levels; blood glucose levels ([3]; following the lactate increase): increased blood glucose levels; effect on insulin-mediated suppression of liver glucose output [4]: reverses insulin-mediated suppression of liver glucose output; reduction in food intake [5]: no reduction; reduction in weight [5]: no reduction; reduction in food intake [6]: no reduction; reduction in weight [6]: no reduction
 |  | des-^1 Lys-h-amylin (CNTATCATQRLANFLVHSSNNFGAILSSTNVGSNTY; ends and bridges not checked; cysteine pairing not given here; UniProt P10997 34-70, looked up, variant K1*) [agonist analogue of human amylin] | marked hyperlactemia followed by hyperglycemia | 
 |  | des-^1 Lys^18 Arg^25,28 Pro-h-amylin | marked hyperlactemia followed by hyperglycemia | 

Substance | solubility characteristics [2] | stability characteristics [2] | amylin activity in vivo (hyperlactemia, hyperglycemia) [1] | further results
^25,28,29 Pro-h-amylin (KCNTATCATQRLANFLVHSSNNFGPILPPTNVGSNTY; ends and bridges not checked; cysteine pairing not given here; UniProt P10997 34-70, looked up, variant A25P S28P S29P) [agonist analogue of human amylin] | more desireable | more desireable | marked hyperlactemia followed by hyperglycemia | 

Source: US5656590A, “Treatment of anorexia and related states” (Amylin Pharmaceuticals, Inc., priority 1993, dated 1997)
